The source of these data is patent US20240425490A1, “SULFAMIDE RIBONUCLEOTIDE REDUCTASE (RNR) INHIBITORS AND USES THEREOF” (Boundless Bio, Inc., priority 2021, published 2024).

The assay deals with T1, RNR (RNR1:RNR2 1:1) (Homo sapiens, UniProt P23921).
T1 sequence (P23921 1-792): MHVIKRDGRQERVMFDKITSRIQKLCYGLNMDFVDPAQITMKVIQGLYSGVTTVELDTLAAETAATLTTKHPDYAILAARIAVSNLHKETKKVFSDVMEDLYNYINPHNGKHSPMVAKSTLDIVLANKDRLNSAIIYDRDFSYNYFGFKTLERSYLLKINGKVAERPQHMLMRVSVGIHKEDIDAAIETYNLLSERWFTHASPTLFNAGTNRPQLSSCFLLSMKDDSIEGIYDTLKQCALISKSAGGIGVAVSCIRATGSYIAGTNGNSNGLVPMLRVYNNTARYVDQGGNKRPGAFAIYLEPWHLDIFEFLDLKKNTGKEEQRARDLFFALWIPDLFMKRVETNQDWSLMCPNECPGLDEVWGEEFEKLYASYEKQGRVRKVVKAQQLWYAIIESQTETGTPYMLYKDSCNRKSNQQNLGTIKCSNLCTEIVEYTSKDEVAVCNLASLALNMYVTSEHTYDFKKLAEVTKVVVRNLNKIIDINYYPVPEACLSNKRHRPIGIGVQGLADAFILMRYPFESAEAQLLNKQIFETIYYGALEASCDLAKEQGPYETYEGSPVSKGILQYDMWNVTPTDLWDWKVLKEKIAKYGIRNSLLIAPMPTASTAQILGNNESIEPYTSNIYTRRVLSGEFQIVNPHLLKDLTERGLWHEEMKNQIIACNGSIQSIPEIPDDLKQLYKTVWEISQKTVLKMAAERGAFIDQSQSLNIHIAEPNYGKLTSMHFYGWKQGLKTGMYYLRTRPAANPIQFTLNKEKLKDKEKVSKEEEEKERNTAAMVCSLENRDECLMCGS
As to the kind of experiment: RNR enzyme activity, rapid-fire mass spectrometry (RFMS) assay. The assay is classed as biochemical. The note with it: RNR 50 nM, CDP 5 μM, ATP 1 mM, 37° C., 45 min, compounds screened up to 50 μM, read-out: RF/MS IC50. On the procedure:
A rapid-fire mass spectrometry (RFMS) assay was used to assess RNR enzyme activity using a 384 well plate and a robotic platform.
The plate layout included two validated reference compounds (Triapine (3-AP) and Hydroxyurea (HU)): • A dose response in duplicate; top concentration: 5 μM (3-AP) and 250 μM (HU), semi-log dilutions. • Spike wells in triplicate randomly spotted at four concentrations: • 250 μM, 100 μM, 30 μM and 2 μM for HU • 5 μM, 2 μM, 0.6 μM and 0.04 μM for 3-AP
First, the multidrop pipes were saturated for 30 minutes with enzymatic solution. Then 30 μL of Stop solution was distributed in column 24. Next, 15 μL of enzyme was distributed in column 1 to 24. Next, a pre-incubation step of 15 minutes at room temperature occurred, followed by distribution of 15 μL of substrate solution (column 1 to 24). Next, the plate was incubated for 45 minutes at 37° C. 30 μL of Stop solution was distributed to columns 1 to 23.
The final parameters for the enzyme reactions were: • Incubation: 37° C., 45 min • [CDP]: 5 μM; [ATP]: 1 mM; [NADPH]: No • [RNR] final: 50 nM with 1:1 (RNR1:RNR2) ratio • Final volume: 30 μL • Stop solution: 6% HCOOH containing 2 μM of 15
Turning to `Cc1ccc(F)c([C@H](C)[C@H](NS(=O)(=O)N2CCC3(CCO3)CC2)c2n[nH]c(=O)o2)c1C` [Example 61, N-((1S,2S)-2-(6-fluoro-2,3-dimethylphenyl)-1-(5-oxo-4,5-dihydro-1,3,4-oxadiazol-2-yl)propyl)-1-oxa-7-azaspiro[3.5]nonane-7-sulfonamide], the IC50 lay in the range of 10 to 100 µM.
As for `Cc1ccc(F)c([C@H](C)[C@H](NS(=O)(=O)N2CCC3(CC2)CC(F)(F)C3)c2n[nH]c(=O)o2)c1C` [Example 95, 2,2-difluoro-N-((1S,2S)-2-(6-fluoro-2,3-dimethylphenyl)-1-(5-oxo-4,5-dihydro-1,3,4-oxadiazol-2-yl)propyl)-7-azaspiro[3.5]nonane-7-sulfonamide], the figure is 1 to 10 µM.
As for `Cc1ccc(F)c([C@H](C)[C@H](NS(=O)(=O)N2CCCC(C)(C)C2)c2n[nH]c(=O)o2)c1C` [Example 119, N-((1S,2S)-2-(6-fluoro-2,3-dimethylphenyl)-1-(5-oxo-4,5-dihydro-1,3,4-oxadiazol-2-yl)propyl)-3,3-dimethylpiperidine-1-sulfonamide], the figure is 1 to 10 µM.
The figure for `Cc1ccc(F)c([C@H](C)[C@H](NS(=O)(=O)N2CCC(F)(F)CC2)c2n[nH]c(=O)o2)c1C` [Example 2, 4,4-difluoro-N-[(1S,2S)-2-(6-fluoro-2,3-dimethylphenyl)-1-(5-oxo-4H-1,3,4-oxadiazol-2-yl)propyl]piperidine-1-sulfonamide] is 10 to 100 µM; for `Cc1ccc(F)c([C@H](C)[C@H](NS(=O)(=O)N2CCCCC2C(=O)O)c2n[nH]c(=O)o2)c1C` (stereo partly drawn) [Example 14, 1-(N-((1S,2S)-2-(6-fluoro-2,3-dimethylphenyl)-1-(5-oxo-4,5-dihydro-1,3,4-oxadiazol-2-yl)propyl)sulfamoyl)piperidine-2-carboxylic acid] it is 10 to 100 µM; for `Cc1ccc(F)c([C@@H](C)[C@H](NS(=O)(=O)N2CC3CCCC(C3)C2)c2n[nH]c(=O)o2)c1C` [Example 7, N-((1S,2R)-2-(6-fluoro-2,3-dimethylphenyl)-1-(5-oxo-4,5-dihydro-1,3,4-oxadiazol-2-yl)propyl)-3-azabicyclo[3.3.1]nonane-3-sulfonamide] it is 10 to 100 µM.
For `Cc1ccc(F)c(C(C)[C@H](NS(=O)(=O)N2CCC(CN3CCCCC3)CC2)c2n[nH]c(=O)o2)c1C` (stereo partly drawn) [Example 62, N-((1S)-2-(6-fluoro-2,3-dimethylphenyl)-1-(5-oxo-4,5-dihydro-1,3,4-oxadiazol-2-yl)propyl)-4-(piperidin-1-ylmethyl)piperidine-1-sulfonamide], the IC50 was 10 to 100 µM.
As for `Cc1ccc(F)c([C@@H](C)[C@H](NS(=O)(=O)N2CCC3(CCCCC3)CC2)c2n[nH]c(=O)o2)c1C` [Example 87, N-((1S,2R)-2-(6-fluoro-2,3-dimethylphenyl)-1-(5-oxo-4,5-dihydro-1,3,4-oxadiazol-2-yl)propyl)-3-azaspiro[5.5]undecane-3-sulfonamide], the IC50 lay within 0.1 to 1 µM.
Consider `Cc1ccc(F)c([C@H](C)[C@H](NS(=O)(=O)N2CCC(C)(C#N)CC2)c2n[nH]c(=O)o2)c1C` [Example 82, 4-cyano-N-((1S,2S)-2-(6-fluoro-2,3-dimethylphenyl)-1-(5-oxo-4,5-dihydro-1,3,4-oxadiazol-2-yl)propyl)-4-methylpiperidine-1-sulfonamide], for which the IC50 fell in the range of 1 to 10 µM.
The figure for `Cc1ccc(F)c([C@@H](C)[C@H](NS(=O)(=O)N2CCC3(CC2)CC(F)(F)C3)c2n[nH]c(=O)o2)c1C` [Example 94, 2,2-difluoro-N-((1S,2R)-2-(6-fluoro-2,3-dimethylphenyl)-1-(5-oxo-4,5-dihydro-1,3,4-oxadiazol-2-yl)propyl)-7-azaspiro[3.5]nonane-7-sulfonamide] is 0.1 to 1 µM.
The figure for `Cc1ccc(F)c([C@@H](C)[C@H](NS(=O)(=O)N2CCC(F)(F)CC2)c2n[nH]c(=O)o2)c1C` [Example 1, 4,4-difluoro-N-((1S,2R)-2-(6-fluoro-2,3-dimethylphenyl)-1-(5-oxo-4,5-dihydro-1,3,4-oxadiazol-2-yl)propyl)piperidine-1-sulfonamide] is 0.1 to 1 µM; for `Cc1ccc(F)c(C(C)[C@H](NS(=O)(=O)N2CCC(C(C)O)CC2)c2n[nH]c(=O)o2)c1C` (stereo partly drawn) [Example 32, N-((1S)-2-(6-fluoro-2,3-dimethylphenyl)-1-(5-oxo-4,5-dihydro-1,3,4-oxadiazol-2-yl)propyl)-4-(1-hydroxyethyl)piperidine-1-sulfonamide] it is 1 to 10 µM; for `CCN(CC1CC1)S(=O)(=O)N[C@H](c1n[nH]c(=O)o1)[C@@H](C)c1c(F)ccc(C)c1C` [Example 120] it is 10 to 100 µM.
For `Cc1ccc(F)c([C@@H](C)[C@H](NS(=O)(=O)N2CCC(C(C)C)CC2)c2n[nH]c(=O)o2)c1C` [Example 38, N-((1S,2R)-2-(6-fluoro-2,3-dimethylphenyl)-1-(5-oxo-4,5-dihydro-1,3,4-oxadiazol-2-yl)propyl)-4-isopropylpiperidine-1-sulfonamide], the IC50 was 10 to 100 µM.
In the case of `COCC1CCN(S(=O)(=O)N[C@H](c2n[nH]c(=O)o2)[C@@H](C)c2c(F)ccc(C)c2C)CC1` [Example 128, N-((1S,2S)-2-(6-fluoro-2,3-dimethylphenyl)-1-(5-oxo-4,5-dihydro-1,3,4-oxadiazol-2-yl)propyl)-4-(methoxymethyl)piperidine-1-sulfonamide], the IC50 fell in the range of 1 to 10 µM.
On to `Cc1ccc(F)c([C@@H](C)[C@H](NS(=O)(=O)N2CCCCC2c2ccccc2)c2n[nH]c(=O)o2)c1C` (stereo partly drawn) [Example 35, N-((1S,2R)-2-(6-fluoro-2,3-dimethylphenyl)-1-(5-oxo-4,5-dihydro-1,3,4-oxadiazol-2-yl)propyl)-2-phenylpiperidine-1-sulfonamide], for which the IC50 fell in the range of 1 to 10 µM.
As for `Cc1ccc(F)c([C@H](C)[C@H](NS(=O)(=O)N2CCC3(CC2)OCCO3)c2n[nH]c(=O)o2)c1C` [Example 134, N-((1S,2S)-2-(6-fluoro-2,3-dimethylphenyl)-1-(5-oxo-4,5-dihydro-1,3,4-oxadiazol-2-yl)propyl)-1,4-dioxa-8-azaspiro[4.5]decane-8-sulfonamide], the figure is 0.1 to 1 µM.
The figure for `Cc1ccc(F)c(C(C)[C@H](NS(=O)(=O)N2CCC(OC(F)(F)F)CC2)c2n[nH]c(=O)o2)c1C` (stereo partly drawn) [Example 46, N-((1S)-2-(6-fluoro-2,3-dimethylphenyl)-1-(5-oxo-4,5-dihydro-1,3,4-oxadiazol-2-yl)propyl)-4-(trifluoromethoxy)piperidine-1-sulfonamide] is 1 to 10 µM; for `Cc1ccc(F)c([C@@H](C)[C@H](NS(=O)(=O)N2CCC[C@](C)(O)C2)c2n[nH]c(=O)o2)c1C` [Example 20, (S)-N-((1S,2R)-2-(6-fluoro-2,3-dimethylphenyl)-1-(5-oxo-4,5-dihydro-1,3,4-oxadiazol-2-yl)propyl)-3-hydroxy-3-methylpiperidine-1-sulfonamide] it is 1 to 10 µM; for `Cc1ccc(F)c([C@H](C)[C@H](NS(=O)(=O)N2CCCC(C(C)O)C2)c2n[nH]c(=O)o2)c1C` (mixture of isomers) [Example 28, rac-N-((1R,2R)-2-(6-fluoro-2,3-dimethylphenyl)-1-(5-oxo-4,5-dihydro-1,3,4-oxadiazol-2-yl)propyl)-3-(1-hydroxyethyl)piperidine-1-sulfonamide] it is 10 to 100 µM.
